Entries after “also recorded” stand apart in the source; their conditions may differ. Structures can show the parent of a compound that is named as a salt. Where two headings read alike, the source gives them in different places.
Legend:
native HEK293 cells = experiment: Whole-cell patch-clamp control in native HEK293 cells without transfection; format: cell-based, human; conditions: prolintane 30 µM, 5-HT 10 µM (Fig. S3)
Description: One day prior to recording, either native HEK293 cells or HEK293 cells stably expressing monoamine transporters were seeded at low density onto PDL-coated 35 mm dishes. Patch-clamp experiments were conducted at a holding potential of −60 mV, with substrate-induced currents recorded at room temperature (20–24 °C) using an […] amplifier and pClamp 11.2 software (MDS Analytical Technologies). During recordings, cells were continuously superfused via a DAD-12 perfusion system and an 8-tube manifold (ALA Scientific Instruments), delivering an external solution composed of 140 mM NaCl, 2.5 mM CaCl2, 3 mM KCl, 2 mM MgCl2, 20 mM glucose, and 10 mM HEPES, with pH adjusted to 7.3 using NaOH. The intracellular pipette solution, designed to mimic physiological ionic conditions, contained 133 mM potassium gluconate, 5.9 mM NaCl, 1 mM CaCl2, 0.7 mM MgCl2, 10 mM HEPES, and 10 mM EGTA, with pH set to 7.2 using KOH. Currents were filtered at 1 kHz and digitized at 10 kHz via a Digidata 1550 digitizer (MDS Analytical Technologies), followed by analysis in Clampfit 10.2 (Molecular Devices). Substance-induced currents were normalized to the current elicited by a saturating concentration of 5-HT (10 μM) of the same cell. Holding currents were subtracted, and a 50 Hz digital Gaussian low-pass filter was applied to the traces for further analysis.

hNET = target: T1, hNET (Homo sapiens, UniProt P23975); experiment: Batch release assay ([3H]MPP+) in transfected HEK293 cells; format: cell-based; conditions: % efflux of total uptake, compounds approximately at IC50 concentration
T1 construct: expressed in transfected cells
T1 sequence (P23975 whole entry): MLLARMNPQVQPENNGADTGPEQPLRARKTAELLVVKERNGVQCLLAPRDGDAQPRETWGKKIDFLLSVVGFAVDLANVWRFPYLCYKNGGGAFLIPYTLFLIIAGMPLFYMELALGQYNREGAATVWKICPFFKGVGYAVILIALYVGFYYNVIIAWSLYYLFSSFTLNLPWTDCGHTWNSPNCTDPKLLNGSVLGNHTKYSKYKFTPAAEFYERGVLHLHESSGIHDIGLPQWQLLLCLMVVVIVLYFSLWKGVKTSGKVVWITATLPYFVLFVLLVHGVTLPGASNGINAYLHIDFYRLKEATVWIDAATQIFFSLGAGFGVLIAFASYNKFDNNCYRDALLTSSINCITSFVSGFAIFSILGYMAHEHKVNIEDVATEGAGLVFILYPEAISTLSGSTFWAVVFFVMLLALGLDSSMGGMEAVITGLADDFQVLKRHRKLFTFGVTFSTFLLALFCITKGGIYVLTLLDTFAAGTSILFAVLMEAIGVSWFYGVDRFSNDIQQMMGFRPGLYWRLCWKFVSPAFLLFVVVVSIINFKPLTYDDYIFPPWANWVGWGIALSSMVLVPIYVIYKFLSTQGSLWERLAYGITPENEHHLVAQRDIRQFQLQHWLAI
Description: (§1) Batch release assays were performed as described previously ([44]). In brief, HEK293 cells stably expressing monoamine transporters were seeded similar to the procedure used for uptake inhibition assays. A day after seeding cells were pre-loaded with 50 μl/well 0.015 μM [^3H]MPP^+ (hDAT, hNET), or 0.08 μM [^3H]5-HT (hSERT) for 20 min at 37 °C. Then cells were washed four times for 3 to 4 min each and further incubated with KHB or KHB + monensin. After 10 min of incubation, two (screening) to four (full traces; hSERT) 2 min incubations were performed to establish a baseline release without substance. […] Each fraction was transferred to an empty well in the 96-well plate. For screening, a known inhibitor (hDAT, hNET: 50 μM GBR12909) and releaser (hDAT, hNET: 10 μM S-(+)-amphetamine) were used as controls. Ultima Gold XR scintillation cocktail was added to the remaining cells, and each well contained a release fraction. The counted radioactivity in the respective fraction was expressed as a percentage of total radioactivity at the start of the fraction.
(§2) Half-maximal inhibitory concentrations (IC50) were obtained from fitting a sigmoidal dose–response ( Y=Bottom+Top−Bottom/1+10^((LogIC50−X)·HillSlope) ) in GraphPad Prism 10.3.1 (GraphPad Software Inc.). Uptake inhibition data were evaluated by one-way ANOVA followed by Tukey's multiple comparisons test. Release data were analyzed using a two-way ANOVA (batch release) or a mixed-effects model with Geisser-Greenhouse correction (time-dependent traces) employing Šidák correction for comparing differences between compounds with or without the addition of monensin.

hDAT = target: T2, hDAT (Homo sapiens, UniProt Q01959); experiment: as above; format: cell-based; conditions: % efflux of total uptake, compounds approximately at IC50 concentration
T2 construct: expressed in transfected cells
T2 sequence (Q01959 whole entry): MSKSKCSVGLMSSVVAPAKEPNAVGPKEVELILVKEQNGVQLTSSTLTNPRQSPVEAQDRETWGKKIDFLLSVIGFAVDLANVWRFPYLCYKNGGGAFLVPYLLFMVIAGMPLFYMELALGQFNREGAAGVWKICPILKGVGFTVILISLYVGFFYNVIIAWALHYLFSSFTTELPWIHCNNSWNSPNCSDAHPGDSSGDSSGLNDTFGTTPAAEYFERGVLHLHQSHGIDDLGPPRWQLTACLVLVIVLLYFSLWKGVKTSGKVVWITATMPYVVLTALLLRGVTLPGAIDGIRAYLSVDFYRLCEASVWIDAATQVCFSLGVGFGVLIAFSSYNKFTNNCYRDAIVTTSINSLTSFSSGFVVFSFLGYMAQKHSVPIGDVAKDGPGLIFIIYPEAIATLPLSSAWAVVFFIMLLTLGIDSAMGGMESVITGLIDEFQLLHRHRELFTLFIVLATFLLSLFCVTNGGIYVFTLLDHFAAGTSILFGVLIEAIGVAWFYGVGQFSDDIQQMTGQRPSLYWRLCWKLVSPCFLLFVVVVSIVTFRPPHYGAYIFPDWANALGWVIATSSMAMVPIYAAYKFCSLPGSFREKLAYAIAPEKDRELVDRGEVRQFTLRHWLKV
Description: as §1, §2

rSERT = rSERT (Rattus norvegicus, UniProt P31652); format: cell-based; set-up: expressed in transfected cells; conditions: for Mean diff, rSERT efflux ± Mon (Šídák's multiple comparisons test): drug alone vs drug + monensin (Mon)
rSERT, sequence (P31652 whole entry, the tested form may be a part): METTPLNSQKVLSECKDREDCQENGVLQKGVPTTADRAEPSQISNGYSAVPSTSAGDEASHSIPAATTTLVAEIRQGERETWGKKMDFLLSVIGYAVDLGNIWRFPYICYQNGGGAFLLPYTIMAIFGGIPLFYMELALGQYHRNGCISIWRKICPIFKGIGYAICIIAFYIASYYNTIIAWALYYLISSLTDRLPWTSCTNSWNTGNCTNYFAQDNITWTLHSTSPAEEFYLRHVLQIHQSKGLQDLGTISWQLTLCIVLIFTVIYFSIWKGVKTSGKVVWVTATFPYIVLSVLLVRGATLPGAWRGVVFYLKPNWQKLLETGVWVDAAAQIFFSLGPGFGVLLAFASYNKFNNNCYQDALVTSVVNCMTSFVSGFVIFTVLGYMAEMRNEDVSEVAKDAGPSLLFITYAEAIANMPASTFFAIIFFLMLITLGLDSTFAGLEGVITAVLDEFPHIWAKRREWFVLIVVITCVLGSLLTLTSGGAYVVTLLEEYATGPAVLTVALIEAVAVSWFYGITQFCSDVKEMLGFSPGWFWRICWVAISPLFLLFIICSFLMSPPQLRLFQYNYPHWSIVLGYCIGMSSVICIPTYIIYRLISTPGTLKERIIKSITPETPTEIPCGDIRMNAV
Description: A day prior to the experiment, HEK293 cells stably expressing hSERT or rat SERT (rSERT) were seeded at a density of 100,000 cells per channel into 6 channel flow ibidi slides (Gräfelfing, Germany). On the day of the experiments, cells were preloaded with 0.1 μM [^3H]5-HT at 37 °C, 5% CO2 for 20 min. Subsequently, the slides were transferred to the superfusion apparatus ([59]). Cells were then washed with KHB for 15 min under a constant flow of 0.5 ml/min. Fractions were collected every 2 min in 8 ml vials containing 2 ml scintillation cocktail. Collection began with three baseline fractions using KHB, followed by four additional basal release fractions with KHB, either with or without 10 μM monensin. […] To assess residual radioactivity within the cells, they were lysed with 1% sodium dodecyl sulfate (SDS), and three final fractions were obtained. The measured tritiated substrate in each fraction was expressed as a percentage of the initial tritiated substrate present at the start of that fraction.
Uptake inhibition data were evaluated by one-way ANOVA followed by Tukey's multiple comparisons test. Release data were analyzed using a two-way ANOVA (batch release) or a mixed-effects model with Geisser-Greenhouse correction (time-dependent traces) employing Šidák correction for comparing differences between compounds with or without the addition of monensin.

hSERT = target: T3, hSERT (Homo sapiens, UniProt P31645); format: cell-based
T3 construct: expressed in transfected cells
T3 sequence (P31645 whole entry): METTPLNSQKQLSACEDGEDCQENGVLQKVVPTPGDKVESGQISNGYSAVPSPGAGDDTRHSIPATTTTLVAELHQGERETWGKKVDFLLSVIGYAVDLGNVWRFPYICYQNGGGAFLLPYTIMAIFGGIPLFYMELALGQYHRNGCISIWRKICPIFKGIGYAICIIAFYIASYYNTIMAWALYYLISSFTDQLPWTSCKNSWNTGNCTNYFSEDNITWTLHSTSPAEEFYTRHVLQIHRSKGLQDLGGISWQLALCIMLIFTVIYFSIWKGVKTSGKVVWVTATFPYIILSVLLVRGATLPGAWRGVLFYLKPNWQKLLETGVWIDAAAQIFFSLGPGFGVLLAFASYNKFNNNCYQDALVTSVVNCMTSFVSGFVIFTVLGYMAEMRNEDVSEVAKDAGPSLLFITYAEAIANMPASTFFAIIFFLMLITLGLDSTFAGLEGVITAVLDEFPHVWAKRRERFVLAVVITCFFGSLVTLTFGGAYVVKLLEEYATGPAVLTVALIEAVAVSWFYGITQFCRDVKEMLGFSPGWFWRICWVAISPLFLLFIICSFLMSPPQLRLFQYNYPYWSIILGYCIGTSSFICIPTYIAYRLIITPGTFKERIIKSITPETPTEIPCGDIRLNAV
Description: as §1, §2

`NCCc1c[nH]c2ccc(O)cc12` [5-HT, serotonin] was tested, and the “current in native HEK293 cells without transfection” value (native HEK293 cells) was “no current could be recorded; also recorded: do not induce currents”.

For `Fc1ccc(C(OCCN2CCN(CCCc3ccccc3)CC2)c2ccc(F)cc2)cc1` [GBR12909, vanoxerine, reference compound], the “hNET-mediated efflux, predicted (LS) mean diff, No mon - Mon” value (hNET) was -0.7072 and the “hDAT-mediated efflux, predicted (LS) mean diff, No mon - Mon” value (hDAT) was -0.7725.

In the case of `C[C@H](N)Cc1ccccc1` [S-(+)-amphetamine, dextroamphetamine hemi sulfate salt, reference compound], the “hNET-mediated efflux, predicted (LS) mean diff, No mon - Mon” value (hNET) is reported as -5.397 and the “hDAT-mediated efflux, predicted (LS) mean diff, No mon - Mon” value (hDAT) is reported as -1.735.

In the case of `CC(N)Cc1ccc(Cl)cc1` (stereo not shown) [pCA, para-chloroamphetamine], the “Mean diff, rSERT efflux ± Mon (Šídák's multiple comparisons test)” value (“Mean diff, rSERT efflux ± Mon” below) (rSERT; Row 1 (time fraction)) is reported as 0.1306, the “Mean diff, rSERT efflux ± Mon” value (rSERT; Row 2 (time fraction)) is reported as 0.1761 and the “Mean diff, rSERT efflux ± Mon” value (rSERT; Row 3 (time fraction)) is reported as 0.2854. The “Mean diff, rSERT efflux ± Mon” value (rSERT; Row 4 (time fraction)) was 0.1377, the “Mean diff, rSERT efflux ± Mon” value (rSERT; Row 5 (time fraction)) was -0.4218 and the “Mean diff, rSERT efflux ± Mon” value (rSERT; Row 6 (time fraction)) was -0.8916. For the same molecule, the “Mean diff, rSERT efflux ± Mon” value (rSERT; Row 7 (time fraction)) was -1.153, the “Mean diff, rSERT efflux ± Mon” value (rSERT; Row 8 (time fraction)) was -7.649 and the “Mean diff, rSERT efflux ± Mon” value (rSERT; Row 9 (time fraction)) was -4.816. The “Mean diff, rSERT efflux ± Mon” value (rSERT; Row 10 (time fraction)) was -3.007, the “Mean diff, rSERT efflux ± Mon” value (rSERT; Row 11 (time fraction)) was -2.599 and the “Mean diff, rSERT efflux ± Mon” value (rSERT; Row 12 (time fraction)) was -2.043. For the same molecule, the “magnitude of [3H]5-HT release in cells expressing rSERT compared to hSERT” value (rSERT; superfusion, HEK293 cells) was “significantly lower magnitude” and the “hSERT-mediated efflux, predicted (LS) mean diff, No mon - Mon” value (hSERT) was -18.87.

Source: article PMC12720098, “Prolintane analogs as hybrid monoamine transporter ligands: Structural determinants and species differences” (The Journal of Biological Chemistry, 2025)
